Literature values as cited in patent US20200221707A1, “Sanitizing Compositions and Methods for Making and Using Same” (priority 2017, published 2020).

How the values were obtained:
[1] = tested on: Gram-negative bacteria and fungi
most bacteria = details: in <30 seconds

Row | SMILES | amount effective against Gram-negative bacteria and fungi [1] | amount active against Gram-positive bacteria (Gram-positive bacteria) | bacteria destroyed (most bacteria)
1 | [H]/N=C(\N/C(=N/[H])NCCCCCCNC(=N)NC(=N)Nc1ccc(Cl)cc1)Nc1ccc(Cl)cc1 [Chlorhexidine] | 10-80 ppm | at least 1 ppm | –
2 | CC(C)O [Isopropyl alcohol] | – | – | > 99.99%
